Test results published in patent US9206193B2, “Substituted norindenoisoquinolines, syntheses thereof, and methods of use” (PURDUE RESEARCH FOUNDATION, priority 2010, dated 2015).
Where two headings read alike, the source gives them in different places.

How the values were obtained:
[1] = molecular target: T1, Human recombinant Top1 (Homo sapiens, UniProt P11387); experiment: Topoisomerase I-mediated DNA cleavage reactions; assay type: biochemical; parameters: key to Top1 cleavage: 0: no activity; +: weak activity; ++: similar activity as CPT; +++ and ++++: greater activity than CPT; ++++: similar activity as 1 uM CPT; settings: for Top1 cleavage: semiquantitative, relative to 1 uM CPT, concentrations ranging up to 10 uM
T1 construct: made in house
T1 sequence (P11387 1-765): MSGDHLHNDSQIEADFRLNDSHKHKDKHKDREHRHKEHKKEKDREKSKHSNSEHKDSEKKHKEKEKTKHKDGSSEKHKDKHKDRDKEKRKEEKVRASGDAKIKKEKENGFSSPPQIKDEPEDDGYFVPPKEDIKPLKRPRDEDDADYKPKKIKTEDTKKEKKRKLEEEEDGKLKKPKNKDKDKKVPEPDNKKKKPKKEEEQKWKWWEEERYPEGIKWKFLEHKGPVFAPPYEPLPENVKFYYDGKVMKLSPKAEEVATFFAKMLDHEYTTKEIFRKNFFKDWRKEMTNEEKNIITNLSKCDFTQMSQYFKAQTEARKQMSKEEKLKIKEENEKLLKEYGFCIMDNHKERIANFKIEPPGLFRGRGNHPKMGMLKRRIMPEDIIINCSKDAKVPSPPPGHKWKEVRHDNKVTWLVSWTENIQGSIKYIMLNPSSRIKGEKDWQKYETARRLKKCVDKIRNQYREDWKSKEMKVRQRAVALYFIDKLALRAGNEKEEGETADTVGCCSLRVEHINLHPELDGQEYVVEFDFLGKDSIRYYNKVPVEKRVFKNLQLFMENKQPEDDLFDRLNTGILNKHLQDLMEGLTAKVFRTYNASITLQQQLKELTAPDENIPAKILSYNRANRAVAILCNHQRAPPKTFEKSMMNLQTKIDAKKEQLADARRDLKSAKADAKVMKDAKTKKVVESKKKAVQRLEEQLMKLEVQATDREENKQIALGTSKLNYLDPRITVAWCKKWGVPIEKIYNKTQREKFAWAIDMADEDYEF
Protocol: Norindenoisoquinolines 14a-f are examined for induction of Top1-mediated DNA cleavage using a 117-bp DNA oligonucleotide encompassing the previously identified Top1 cleavage sites in the 161-bp fragment from pBluescript SK(−) phagemid DNA (Dexheimer & Pommier DNA Cleavage Assay for the Identification of Topoisomerase I Inhibitors. Nat. Protocol. 2008, 3, 1736-1750).
Human recombinant Top1 was purified from baculovirus as previously described.^46 DNA cleavage reactions were prepared as previously reported with the exception of the DNA substrate.^13 Briefly, a 117-bp DNA oligonucleotide (Integrated DNA Technologies) encompassing the previously identified Top1 cleavage sites in the 161-bp fragment from pBluescript SK(−) phagemid DNA was employed. This 117-bp oligonucleotide contains a single 5′-cytosine overhang, which was 3′-end labeled by fill-in reaction with [α-^32P]-dGTP in React 2 buffer (50 mM Tris-HCl, pH 8.0, […], 50 mM NaCl) with 0.5 units of DNA polymerase I (Klenow fragment, New England BioLabs). Unincorporated ^32P-dGTP was removed using mini Quick Spin DNA columns (Roche, Indianapolis, Ind.), and the eluate containing the 3′-end-labeled DNA substrate was collected. Approximately 2 nM of radiolabeled DNA substrate was incubated with recombinant Top1 in 20 μL of reaction buffer [10 mM Tris-HCl (pH 7.5), 50 mM KCl, 5 mM MgCl2, 0.1 mM EDTA, and 15 μg/ml BSA] at 25° C. for 20 min in the presence of various concentrations of compounds. The reactions were terminated by adding SDS (0.5% final concentration) followed by the addition of two volumes of loading dye (80% formamide, 10 mM sodium hydroxide, 1 mM sodium EDTA, 0.1% xylene cyanol, and 0.1% bromphenol blue). Aliquots of each reaction were subjected to 20% denaturing PAGE. Gels were dried and visualized by using a Phosphoimager and ImageQuant software (Molecular Dynamics). For simplicity, cleavage sites were numbered as previously described in the 161-bp fragment.

[2] = test system: HOP-62; experiment: NCI DTP antiproliferative screen, lung HOP-62; assay type: cell-based, human
Protocol: (§1) The norindenoisoquinolines are examined for antiproliferative activity in the National Cancer Institute's Developmental Therapeutics Program (DTP) (Boyd & Paull, Some Practical Considerations and Applications of the National Cancer Institute In Vitro Anticancer Drug Discovery Screen. Drug Development Res. 1995, 34, 91-109; Shoemaker, The NCI60 Human Tumour Cell Line Anticancer Drug screen. Nat. Rev. Cancer 2006, 6, 813-823). Each compound is evaluated against approximately 55 human cell lines representing leukemia, melanoma, and cancers of the lung, colon, brain, breast, ovary, prostate and kidney. After an initial one-dose assay at a single high dose (10^−5 M), only compounds that satisfy the pre-determined threshold inhibition criteria are selected for further 5-dose assay.

[3] = test system: DU-145; experiment: NCI DTP antiproliferative screen, prostate DU-145; assay type: cell-based, human
Protocol: as §1

[4] = test system: HCT-116; experiment: NCI DTP antiproliferative screen, colon HCT-116; assay type: cell-based, human
Protocol: as §1

[5] = test system: UACC-62; experiment: NCI DTP antiproliferative screen, melanoma UACC-62; assay type: cell-based, human
Protocol: as §1

[6] = test system: all human cancer cell lines successfully tested; experiment: NCI DTP antiproliferative screen, mean graph midpoint; assay type: cell-based; settings: average GI50 of all cell lines tested; values outside 10^-8 to 10^-4 M taken as the limits
Protocol: as §1

[7] = test system: SF-539; experiment: NCI DTP antiproliferative screen, CNS SF-539; assay type: cell-based, human
Protocol: as §1

[8] = test system: OVCAR-3; experiment: NCI DTP antiproliferative screen, ovarian OVCAR-3; assay type: cell-based, human
Protocol: as §1

[9] = test system: SN12C; experiment: NCI DTP antiproliferative screen, renal SN12C; assay type: cell-based, human
Protocol: as §1

[10] = test system: MDA-MB-435; experiment: NCI DTP antiproliferative screen, breast MDA-MB-435; assay type: cell-based; settings: Homo sapiens
Protocol: as §1

[11] = 117-bp DNA substrate, gel of FIG. 2
[12] = Homo sapiens, HOP-62, read-out: Cytotoxicity GI50 Lung HOP-62
[13] = MDA-MB-435, read-out: Cytotoxicity GI50 Breast MDA-MB-435
[14] = Homo sapiens, DU-145, read-out: Cytotoxicity GI50 Prostate DU-145
[15] = Homo sapiens, HCT-116, read-out: Cytotoxicity GI50 Colon HCT-116
[16] = Homo sapiens, UACC-62, read-out: Cytotoxicity GI50 Melanoma UACC-62
[17] = Homo sapiens, read-out: Cytotoxicity GI50 CNS SF-539
[18] = Homo sapiens, OVCAR-3, read-out: Cytotoxicity GI50 Ovarian OVCAR-3
[19] = Homo sapiens, SN12C, read-out: Cytotoxicity GI50 Renal SN12C

| 106 (C-T) cleavage site in Top1-mediated DNA cleavage pattern [1, 11] | Top1 cleavage [1] | melting point | SMILES | MGM (mean graph midpoint for growth inhibition) [6] [µM] | GI50 [2, 12] [nM] | GI50 [10, 13] [nM] | GI50 [3, 14] [nM] | GI50 [4, 15] [nM] | GI50 [5, 16] [nM] | GI50 [7, 17] [nM] | GI50 [8, 18] [nM] | GI50 [9, 19] [nM] | 44 (C-G) cleavage site in Top1-mediated DNA cleavage pattern [1, 11] | also measured |
| --- | --- | --- | --- | --- | --- | --- | --- | --- | --- | --- | --- | --- | --- | --- |
| absent | + |  | COc1cc2cnc3c(c2cc1OC)Cc1c-3cc2c(c1CN1CCOCC1)OCO2 [Compound 14e, 2,3-Dimethoxy-8,9-methylenedioxy-10-(4-morpholino)methyl-11H-indeno[1,2-c]isoquinoline] | 2.4 |  |  |  |  |  |  |  |  |  | GI50 [2]: 2100 nM; GI50 [3]: 1900 nM; GI50 [4]: 1400 nM; GI50 [5]: ≥ 100000 nM; GI50 [7]: 1800 nM; GI50 [8]: 1700 nM; GI50 [9]: 2300 nM |
|  |  |  | COc1cc2cnc3c(c2cc1OC)Cc1c-3cc2c(c1CN(C)CCN(C)C)OCO2 [Compound 14f, 2,3-Dimethoxy-8,9-methylenedioxy-10-(N,N,N′-trimethylethylenediamino)methyl-11H-indeno[1,2-c]isoquinoline] | 6.3 |  |  |  |  |  |  |  |  |  | GI50 [2]: 1500 nM; GI50 [3]: 3400 nM; GI50 [4]: 1900 nM; GI50 [5]: 730 nM; GI50 [7]: 11000 nM; GI50 [8]: 7400 nM; GI50 [9]: > 100000 nM |
|  | +++ | 210 °C (dec.) | COc1cc2cnc3c(c2cc1OC)Cc1c-3cc2c(c1CN1CCCC1)OCO2 [Compound 14b, 2,3-Dimethoxy-8,9-methylenedioxy-10-(pyrrolidin-1-yl)methyl-11H-indeno[1,2-c]isoquinoline] | 2.3 | 1200 | 2500 | 730 | 640 | 6700 | 1900 | 730 | 4400 |  |  |
|  | +++ | 205 to 207 °C | COc1cc2cnc3c(c2cc1OC)Cc1c-3cc2c(c1CN(C)C)OCO2 [Compound 14a, 2,3-Dimethoxy-8,9-methylenedioxy-10-(dimethylamino)methyl-11H-indeno[1,2-c]isoquinoline] | 4.4 | 6700 | 16000 | 1600 | 1500 | 12000 | 14000 | 1400 | 13000 |  |  |
|  |  |  | COc1cc2c3c(n(CCCNCCO)c(=O)c2cc1OC)-c1cc2c(cc1C3=O)OCO2 [MJ-III-65, reference compound] |  |  |  |  |  |  |  |  |  | seen | 62 (C-A) cleavage site in Top1-mediated DNA cleavage pattern [1, 11]: observed |
| observed |  |  | COc1cc2cnc3c(c2cc1OC)Cc1cc2c(cc1-3)OCO2 [Compound 5, reference compound] |  |  |  |  |  |  |  |  |  | seen | 97 (T-A) cleavage site in Top1-mediated DNA cleavage pattern [1, 11]: observed |
| observed | ++ | 272 to 274 °C (dec.) | COc1cc2cnc3c(c2cc1OC)Cc1c-3cc2c(c1C)OCO2 [Compound 15, 2,3-Dimethoxy-8,9-methylenedioxy-10-methyl-11H-indeno[1,2-c]isoquinoline] | 11.8 | 7300 | > 100000 | > 100000 | 890 | 700 | 4600 | 5800 | > 100000 | seen | 97 (T-A) cleavage site in Top1-mediated DNA cleavage pattern [1, 11]: observed |
| absent | ++ | 296 °C (dec.) | COc1cc2cnc3c(c2cc1OC)Cc1c-3cc2c(c1CN1CCN(C)CC1)OCO2 [Compound 14d, 2,3-Dimethoxy-8,9-methylenedioxy-10-(4-methylpiperazin-1-yl)methyl-11H-indeno[1,2-c]isoquinoline] |  |  |  |  |  |  |  |  |  |  |  |

| SMILES | 106 (C-T) cleavage site in Top1-mediated DNA cleavage pattern [1, 11] | Top1 cleavage [1] | melting point | MGM (mean graph midpoint for growth inhibition) [6] [µM] | GI50 [2, 12] [nM] | GI50 [10, 13] [nM] | GI50 [3, 14] [nM] | GI50 [4, 15] [nM] | GI50 [5, 16] [nM] | GI50 [7, 17] [nM] | GI50 [8, 18] [nM] | GI50 [9, 19] [nM] | 44 (C-G) cleavage site in Top1-mediated DNA cleavage pattern [1, 11] | also measured |
| --- | --- | --- | --- | --- | --- | --- | --- | --- | --- | --- | --- | --- | --- | --- |
| CC[C@@]1(O)C(=O)OCc2c1cc1n(c2=O)Cc2cc3ccccc3nc2-1 [CPT, camptothecin, reference compound] |  | ++++ |  | 0.0405 |  |  |  |  |  |  |  |  | not | 37 (T-G) cleavage site in Top1-mediated DNA cleavage pattern [1, 11]: observed; GI50 ([2]; Homo sapiens, HOP-62, Table 2, read-out: Cytotoxicity GI50 Lung HOP-62): 10 nM; GI50 ([10]; MDA-MB-435, Table 2, read-out: Cytotoxicity GI50 Breast MDA-MB-435): 40 nM; GI50 ([3]; Homo sapiens, DU-145, Table 2, read-out: Cytotoxicity GI50 Prostate DU-145): 10 nM; GI50 ([4]; Homo sapiens, HCT-116, Table 2, read-out: Cytotoxicity GI50 Colon HCT-116): 30 nM; GI50 ([5]; Homo sapiens, UACC-62, Table 2, read-out: Cytotoxicity GI50 Melanoma UACC-62): 10 nM; GI50 ([7]; Homo sapiens, Table 2, read-out: Cytotoxicity GI50 CNS SF-539): 10 nM; GI50 ([9]; Homo sapiens, SN12C, Table 2, read-out: Cytotoxicity GI50 Renal SN12C): 20 nM |
